In patent publication US20160083391A1, “TRICYCLIC PIPERAZINE DERIVATIVE” (Sunovion Pharmaceuticals Inc., priority 2014, published 2016):

Tested on: PDE1
Experiment: In vitro HTRF PDE1 inhibition assay
Assay type: biochemical
Details: HTRF cGMP assay, 100 nM cyclic GMP, PDE (1A3, 1B or 1C) with calmodulin, 45 minutes at 37° C.; isoform of the tabulated values not stated
In short: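 Activities are given as IC50 bands (<1, 1-10, >10 μM) derived from a 665/615 nm time-resolved FRET readout after d2-cGMP/anti-cGMP cryptate detection. Enzymes PDE1A3, 1B or 1C plus calmodulin were incubated 45 min at 37 °C with 100 nM cGMP, 1% DMSO, CaCl2/MgCl2 Tris buffer pH 7.4.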

| Compound | IC50 [nM] |
| --- | --- |
| CC(C)CN1CCn2c(nc3c(cnn3C(C)C)c2=O)C1 [Compound I-57, 8-Isobutyl-1-isopropyl-6,7,8,9-tetrahydropyrazino[1,2-a]pyrazolo[3,4-d]pyrimidin-4(1H)-one] | > 10000 |
| O=c1c2c(Nc3ccccc3)n(Cc3ccccc3)nc2nc2n1CCNC2 [Compound I-59, 2-Benzyl-3-(phenylamino)-6,7,8,9-tetrahydropyrazino[1,2-a]pyrazolo[3,4-d]pyrimidin-4(2H)-one] | > 10000 |
| CC(C)n1ncc2c(=O)n3c(nc21)CN(Cc1ccccc1-c1ccccc1)CC3 [Compound I-64, 8-([1,1′-Biphenyl]-2-ylmethyl)-1-isopropyl-6,7,8,9-tetrahydropyrazino[1,2-a]pyrazolo[3,4-d]pyrimidin-4(1H)-one] | 1000 to 10000 |
| CC(C)n1ncc2c(=O)n3c(nc21)CN(Cc1cccc(-c2ccccc2)c1)CC3 [Compound I-65, 8-([1,1′-Biphenyl]-3-ylmethyl)-1-isopropyl-6,7,8,9-tetrahydropyrazino[1,2-a]pyrazolo[3,4-d]pyrimidin-4(1H)-one] | < 1000 |
| CC(C)n1ncc2c(=O)n3c(nc21)CN(Cc1ccc(-c2ccccc2)cc1)CC3 [Compound I-66, 8-([1,1′-Biphenyl]-4-ylmethyl)-1-isopropyl-6,7,8,9-tetrahydropyrazino[1,2-a]pyrazolo[3,4-d]pyrimidin-4(1H)-one] | 1000 to 10000 |
| CC(C)n1ncc2c(=O)n3c(nc21)CN(Cc1ccccc1Cl)CC3 [Compound I-67, 8-(2-Chlorobenzyl)-1-isopropyl-6,7,8,9-tetrahydropyrazino[1,2-a]pyrazolo[3,4-d]pyrimidin-4(1H)-one] | < 1000 |
| CC(C)Cn1ncc2c(=O)n3c(nc21)CN(Cc1ccccc1Cl)CC3 [Compound I-68, 8-(2-Chlorobenzyl)-1-isobutyl-6,7,8,9-tetrahydropyrazino[1,2-a]pyrazolo[3,4-d]pyrimidin-4(1H)-one] | 1000 to 10000 |
| O=c1c2cnn(C3CCCC3)c2nc2n1CCN(Cc1ccccc1Cl)C2 [Compound I-69, 8-(2-Chlorobenzyl)-1-cyclopentyl-6,7,8,9-tetrahydropyrazino[1,2-a]pyrazolo[3,4-d]pyrimidin-4(1H)-one] | < 1000 |
| CC(C)n1ncc2c(=O)n3c(nc21)CN(Cc1cccc(Cl)c1)CC3 [Compound I-70, 8-(3-Chlorobenzyl)-1-isopropyl-6,7,8,9-tetrahydropyrazino[1,2-a]pyrazolo[3,4-d]pyrimidin-4(1H)-one] | < 1000 |
| CC(C)Cn1ncc2c(=O)n3c(nc21)CN(Cc1cccc(Cl)c1)CC3 [Compound I-71, 8-(3-Chlorobenzyl)-1-isobutyl-6,7,8,9-tetrahydropyrazino[1,2-a]pyrazolo[3,4-d]pyrimidin-4(1B)-one] | < 1000 |
| O=c1c2cnn(C3CCCC3)c2nc2n1CCN(Cc1cccc(Cl)c1)C2 [Compound I-72, 8-(3-Chlorobenzyl)-1-cyclopentyl-6,7,8,9-tetrahydropyrazino[1,2-a]pyrazolo[3,4-d]pyrimidin-4(1H)-one] | < 1000 |
| CC(C)n1ncc2c(=O)n3c(nc21)CN(Cc1ccc(Cl)cc1)CC3 [Compound I-73, 8-(4-Chlorobenzyl)-1-isopropyl-6,7,8,9-tetrahydropyrazino[1,2-a]pyrazolo[3,4-d]pyrimidin-4(1H)-one] | < 1000 |
| CC(C)Cn1ncc2c(=O)n3c(nc21)CN(Cc1ccc(Cl)cc1)CC3 [Compound I-74, 8-(4-Chlorobenzyl)-1-isobutyl-6,7,8,9-tetrahydropyrazino[1,2-a]pyrazolo[3,4-d]pyrimidin-4(1H)-one] | < 1000 |
| O=c1c2cnn(C3CCCC3)c2nc2n1CCN(Cc1ccc(Cl)cc1)C2 [Compound I-75, 8-(4-Chlorobenzyl)-1-cyclopentyl-6,7,8,9-tetrahydropyrazino[1,2-a]pyrazolo[3,4-d]pyrimidin-4(1H)-one] | < 1000 |
| COc1ccccc1CN1CCn2c(nc3c(cnn3C(C)C)c2=O)C1 [Compound I-76, 1-Isopropyl-8-(2-methoxybenzyl)-6,7,8,9-tetrahydropyrazino[1,2-a]pyrazolo[3,4-d]pyrimidin-4(1H)-one] | 1000 to 10000 |
| COc1ccccc1CN1CCn2c(nc3c(cnn3CC(C)C)c2=O)C1 [Compound I-77, 1-Isobutyl-8-(2-methoxybenzyl)-6,7,8,9-tetrahydropyrazino[1,2-a]pyrazolo[3,4-d]pyrimidin-4(1H)-one] | 1000 to 10000 |
| COc1ccccc1CN1CCn2c(nc3c(cnn3C3CCCC3)c2=O)C1 [Compound I-78, 1-Cyclopentyl-8-(2-methoxybenzyl)-6,7,8,9-tetrahydropyrazino[1,2-a]pyrazolo[3,4-d]pyrimidin-4(1H)-one] | < 1000 |
| COc1cccc(CN2CCn3c(nc4c(cnn4C(C)C)c3=O)C2)c1 [Compound I-79, 1-Isopropyl-8-(3-methoxybenzyl)-6,7,8,9-tetrahydropyrazino[1,2-a]pyrazolo[3,4-d]pyrimidin-4(1H)-one] | 1000 to 10000 |
| COc1cccc(CN2CCn3c(nc4c(cnn4CC(C)C)c3=O)C2)c1 [Compound I-80, 1-Isobutyl-8-(3-methoxybenzyl)-6,7,8,9-tetrahydropyrazino[1,2-a]pyrazolo[3,4-d]pyrimidin-4(1H)-one] | 1000 to 10000 |
| COc1cccc(CN2CCn3c(nc4c(cnn4C4CCCC4)c3=O)C2)c1 [Compound I-81, 1-Cyclopentyl-8-(3-methoxybenzyl)-6,7,8,9-tetrahydropyrazino[1,2-a]pyrazolo[3,4-d]pyrimidin-4(1H)-one] | < 1000 |
| COc1ccc(CN2CCn3c(nc4c(cnn4C(C)C)c3=O)C2)cc1 [Compound I-82, 1-Isopropyl-8-(4-methoxybenzyl)-6,7,8,9-tetrahydropyrazino[1,2-a]pyrazolo[3,4-d]pyrimidin-4(1H)-one] | < 1000 |
| COc1ccc(CN2CCn3c(nc4c(cnn4CC(C)C)c3=O)C2)cc1 [Compound I-83, 1-Isobutyl-8-(4-methoxybenzyl)-6,7,8,9-tetrahydropyrazino[1,2-a]pyrazolo[3,4-d]pyrimidin-4(1H)-one] | < 1000 |
| COc1ccc(CN2CCn3c(nc4c(cnn4C4CCCC4)c3=O)C2)cc1 [Compound I-84, 1-Cyclopentyl-8-(4-methoxybenzyl)-6,7,8,9-tetrahydropyrazino[1,2-a]pyrazolo[3,4-d]pyrimidin-4(1H)-one] | < 1000 |
| CC(C)n1ncc2c(=O)n3c(nc21)CN(c1ccccc1Cl)CC3 [Compound I-85, 8-(2-Chlorophenyl)-1-isopropyl-6,7,8,9-tetrahydropyrazino[1,2-a]pyrazolo[3,4-d]pyrimidin-4(1H)-one] | 1000 to 10000 |
| CC(C)Cn1ncc2c(=O)n3c(nc21)CN(c1ccccc1Cl)CC3 [Compound I-86, 8-(2-Chlorophenyl)-1-isobutyl-6,7,8,9-tetrahydropyrazino[1,2-a]pyrazolo[3,4-d]pyrimidin-4(1H)-one] | 1000 to 10000 |
| O=c1c2cnn(C3CCCC3)c2nc2n1CCN(c1ccccc1Cl)C2 [Compound I-87, 8-(2-Chlorophenyl)-1-cyclopentyl-6,7,8,9-tetrahydropyrazino[1,2-a]pyrazolo[3,4-d]pyrimidin-4(1H)-one] | 1000 to 10000 |
| CC(C)n1ncc2c(=O)n3c(nc21)CN(c1cccc(Cl)c1)CC3 [Compound I-88, 8-(3-Chlorophenyl)-1-isopropyl-6,7,8,9-tetrahydropyrazino[1,2-a]pyrazolo[3,4-d]pyrimidin-4(1H)-one] | < 1000 |
